pEC50: −log10 of the molar value.
Assays:
[1] = molecular target: T1, TLR7 (Homo sapiens, UniProt Q9NYK1); assay: In vitro human TLR7 binding reporter assay (HEK-Blue, NF-kB/AP1-inducible SEAP); format: cell-based; conditions: activity range symbols
T1 construct: host or cells: HEK-Blue cells (human HEK) co-expressing TLR7 and an NF-kB/AP1-inducible SEAP reporter
T1 sequence (Q9NYK1 27-1049): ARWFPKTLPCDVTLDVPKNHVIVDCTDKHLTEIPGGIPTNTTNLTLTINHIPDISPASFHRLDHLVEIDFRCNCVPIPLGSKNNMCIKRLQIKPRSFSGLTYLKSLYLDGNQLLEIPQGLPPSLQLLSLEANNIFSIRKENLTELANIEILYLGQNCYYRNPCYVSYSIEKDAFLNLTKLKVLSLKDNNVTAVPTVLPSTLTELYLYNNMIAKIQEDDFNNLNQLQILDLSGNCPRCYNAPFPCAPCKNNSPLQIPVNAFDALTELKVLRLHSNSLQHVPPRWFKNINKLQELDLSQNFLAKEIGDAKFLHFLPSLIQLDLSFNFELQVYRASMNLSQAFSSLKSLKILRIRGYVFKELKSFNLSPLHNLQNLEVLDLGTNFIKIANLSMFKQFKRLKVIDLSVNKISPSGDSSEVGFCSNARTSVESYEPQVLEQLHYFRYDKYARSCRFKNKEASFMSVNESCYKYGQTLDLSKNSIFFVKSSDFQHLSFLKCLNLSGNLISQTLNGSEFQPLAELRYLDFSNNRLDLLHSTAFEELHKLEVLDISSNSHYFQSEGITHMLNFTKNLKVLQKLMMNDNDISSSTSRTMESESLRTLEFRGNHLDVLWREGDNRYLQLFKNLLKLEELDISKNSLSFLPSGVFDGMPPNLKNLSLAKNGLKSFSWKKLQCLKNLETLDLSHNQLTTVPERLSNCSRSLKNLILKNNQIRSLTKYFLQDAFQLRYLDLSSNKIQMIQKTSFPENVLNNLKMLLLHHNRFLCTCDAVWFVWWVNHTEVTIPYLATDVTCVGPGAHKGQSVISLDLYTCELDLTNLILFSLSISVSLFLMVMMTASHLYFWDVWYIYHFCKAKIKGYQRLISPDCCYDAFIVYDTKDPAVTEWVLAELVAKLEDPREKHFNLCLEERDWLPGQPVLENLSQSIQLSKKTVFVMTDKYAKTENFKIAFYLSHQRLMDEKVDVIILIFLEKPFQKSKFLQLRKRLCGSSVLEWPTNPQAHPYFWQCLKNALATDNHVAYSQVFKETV
Method in brief: (§1)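 Reporter cells are plated at 15,000 per well and rested 24 h. Next day, test compounds or DMSO are dispensed, followed by 18 h incubation at 37 °C, 5% CO2.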

[2] = molecular target: T2, TLR8 (Homo sapiens, UniProt Q9NR97); assay: In vitro human TLR8 binding reporter assay (HEK-Blue, NF-kB/AP1-inducible SEAP); format: cell-based; conditions: activity range symbols
T2 construct: host or cells: HEK-Blue cells (human HEK) co-expressing TLR8 and an NF-kB/AP1-inducible SEAP reporter
T2 sequence (Q9NR97 27-1041): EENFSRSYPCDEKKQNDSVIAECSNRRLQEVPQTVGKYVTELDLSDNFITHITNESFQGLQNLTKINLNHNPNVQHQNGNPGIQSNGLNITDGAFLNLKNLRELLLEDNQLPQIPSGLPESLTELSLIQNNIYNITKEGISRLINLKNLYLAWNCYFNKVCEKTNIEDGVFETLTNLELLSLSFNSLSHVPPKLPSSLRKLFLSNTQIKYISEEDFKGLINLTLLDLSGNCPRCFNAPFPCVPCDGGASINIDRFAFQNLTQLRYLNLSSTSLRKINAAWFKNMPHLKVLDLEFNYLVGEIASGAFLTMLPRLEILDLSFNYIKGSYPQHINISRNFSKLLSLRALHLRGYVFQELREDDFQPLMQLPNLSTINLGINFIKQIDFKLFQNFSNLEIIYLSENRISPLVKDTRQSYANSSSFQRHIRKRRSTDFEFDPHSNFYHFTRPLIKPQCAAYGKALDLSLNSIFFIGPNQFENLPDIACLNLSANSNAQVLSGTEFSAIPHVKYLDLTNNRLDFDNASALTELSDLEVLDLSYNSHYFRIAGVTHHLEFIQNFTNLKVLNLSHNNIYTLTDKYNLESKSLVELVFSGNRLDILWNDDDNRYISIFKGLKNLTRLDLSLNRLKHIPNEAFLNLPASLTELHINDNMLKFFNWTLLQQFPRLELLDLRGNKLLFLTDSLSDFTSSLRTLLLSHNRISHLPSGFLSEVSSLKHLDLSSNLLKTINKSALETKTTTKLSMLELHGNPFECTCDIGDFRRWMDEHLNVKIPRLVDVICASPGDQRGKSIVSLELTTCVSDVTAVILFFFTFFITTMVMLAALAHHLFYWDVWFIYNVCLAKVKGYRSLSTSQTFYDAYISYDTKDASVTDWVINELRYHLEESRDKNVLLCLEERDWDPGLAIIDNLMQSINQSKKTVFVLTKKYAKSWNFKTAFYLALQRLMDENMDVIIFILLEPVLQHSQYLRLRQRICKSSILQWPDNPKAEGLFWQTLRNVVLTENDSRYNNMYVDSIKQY
Method in brief: as §1

Compound	pEC50 [1]	pEC50 [2]
CCN(Cc1nc2c(N)nc3cc(-c4cc[nH]n4)ccc3c2[nH]1)C(=O)c1nccs1 [Compound 114]	< 4.00	< 4.00
CN(Cc1nc2c(N)nc3cc(-c4cc[nH]n4)ccc3c2[nH]1)S(C)(=O)=O [Compound 115]	< 4.00	< 4.00
N#Cc1ccccc1-c1ccc2c(c1)nc(N)c1nc(CN3CCCC3=O)[nH]c12 [Compound 315, 2-[4-amino-2-[(2-oxopyrrolidin-l-yl)methyl]-1H-imidazo[4,5-c]quinolin-7-yl]benzonitrile]	< 4.00	< 4.00
Nc1nc2cc(Br)ccc2c2[nH]c(CN3CC(c4ccccc4)CC3=O)nc12 (centres unmarked) [Compound 316, 1-[(4-amino-7-bromo-1H-imidazo[4,5-c]quinolin-2-yl)methyl]-4-phenylpyrrolidin-2-one]	< 4.00	< 4.00
Nc1nc2cc(-c3cccnc3Cl)ccc2c2[nH]c(CN3CCCC3=O)nc12 [Compound 320, 1-[[4-amino-7-(2-chloropyridin-3-yl)-1H-imidazo[4,5-c]quinolin-2-yl]methyl]pyrrolidin-2-one]	< 4.00	< 4.00
Nc1nc2cc(-c3cnccc3Cl)ccc2c2[nH]c(CN3CCCC3=O)nc12 [Compound 321, 1-[[4-amino-7-(4-chloropyridin-3-yl)-1H-imidazo[4,5-c]quinolin-2-yl]methyl]pyrrolidin-2-one]	4.00 to 4.70	< 4.00
N#Cc1cncc(-c2ccc3c(c2)nc(N)c2nc(CN4CCCC4=O)[nH]c23)c1 [Compound 326, 5-[4-amino-2-[(2-oxopyrrolidin-l-yl)methyl]-1H-imidazo[4,5-c]quinolin-7-yl]pyridine-3-carbonitrile]	< 4.00	< 4.00
N#Cc1ccc(-c2ccc3c(c2)nc(N)c2nc(CN4CCCC4=O)[nH]c23)cn1 [Compound 327, 5-[4-amino-2-[(2-oxopyrrolidin-l-yl)methyl]-1H-imidazo[4,5-c]quinolin-7-yl]pyridine-2-carbonitrile]	< 4.00	< 4.00

Second part, the molecule after the results:

pEC50 [1]	pEC50 [2]	Compound
< 4.00	< 4.00	CCC(=O)NCc1nc2c(N)nc3cc(-c4cc[nH]n4)ccc3c2[nH]1 [Compound 111]
4.00 to 4.70	< 4.00	CC(c1nc2c(N)nc3cc(-n4cccn4)ccc3c2[nH]1)N1CCCC1=O (centres unmarked) [Compound 117]
< 4.00	< 4.00	CCN(Cc1nc2c(N)nc3cc(-c4cc[nH]n4)ccc3c2[nH]1)C(=O)C1CC1 [Compound 118]
< 4.00	< 4.00	Nc1nc2cc(-c3cccs3)ccc2c2[nH]c(CN3CCCC3=O)nc12 [Compound 309, 1-[(4-amino-7-thiophen-2-yl-1H-imidazo[4,5-c]quinolin-2-yl)methyl]pyrrolidin-2-one]
< 4.00	< 4.00	COc1ncccc1-c1ccc2c(c1)nc(N)c1nc(CN3CCCC3=O)[nH]c12 [Compound 319, 1-[[4-amino-7-(2-methoxypyridin-3-yl)-1H-imidazo[4,5-c]quinolin-2-yl]methyl]pyrrolidin-2-one]
< 4.00	< 4.00	Nc1nc2cc(-c3ccc(C(F)(F)F)nc3)ccc2c2[nH]c(CN3CCCC3=O)nc12 [Compound 324, 1-[[4-amino-746-(trifluoromethyppyridin-3-yl]-1H-imidazo[4,5-c]quinolin-2-yl]methyl]pyrrolidin-2-one]
< 4.00	< 4.00	Nc1nc2cc(-c3cncc(Cl)c3)ccc2c2[nH]c(CN3CCCC3=O)nc12 [Compound 328, 1-[[4-amino-7-(5-chloropyridin-3-yl)-1H-imidazo[4,5-c]quinolin-2-yl]methyl]pyrrolidin-2-one]
< 4.00	< 4.00	Nc1nc2cc(-c3ccc(F)nc3)ccc2c2[nH]c(CN3CCCC3=O)nc12 [Compound 330, 1-[[4-amino-7-(6-fluoropyridin-3-yl)-1H-imidazo[4,5-c]quinolin-2-yl]methyl]pyrrolidin-2-one]

From US12351580B2, “NLRP3 modulators” (Innate Tumor Immunity, Inc., priority 2017, dated 2025)
